According to ChEMBL document CHEMBL1201862, “PubChem BioAssay data set” (2004):
The source made the active and inactive calls.

Legend:
Exodeoxyribonuclease V = target: T1, Exodeoxyribonuclease V (Escherichia coli (strain K12), UniProt P04993+P07648+P08394); test: E. coli RecBCD inhibitors, dose response, counter-screen for AddAB inhibitor project, absorbance, V66 E. coli, mutant T4 phage (AID 492957); assay type: functional, cell-based, Escherichia coli str. K-12 substr. MG1655
T1 sequence (P04993 whole entry): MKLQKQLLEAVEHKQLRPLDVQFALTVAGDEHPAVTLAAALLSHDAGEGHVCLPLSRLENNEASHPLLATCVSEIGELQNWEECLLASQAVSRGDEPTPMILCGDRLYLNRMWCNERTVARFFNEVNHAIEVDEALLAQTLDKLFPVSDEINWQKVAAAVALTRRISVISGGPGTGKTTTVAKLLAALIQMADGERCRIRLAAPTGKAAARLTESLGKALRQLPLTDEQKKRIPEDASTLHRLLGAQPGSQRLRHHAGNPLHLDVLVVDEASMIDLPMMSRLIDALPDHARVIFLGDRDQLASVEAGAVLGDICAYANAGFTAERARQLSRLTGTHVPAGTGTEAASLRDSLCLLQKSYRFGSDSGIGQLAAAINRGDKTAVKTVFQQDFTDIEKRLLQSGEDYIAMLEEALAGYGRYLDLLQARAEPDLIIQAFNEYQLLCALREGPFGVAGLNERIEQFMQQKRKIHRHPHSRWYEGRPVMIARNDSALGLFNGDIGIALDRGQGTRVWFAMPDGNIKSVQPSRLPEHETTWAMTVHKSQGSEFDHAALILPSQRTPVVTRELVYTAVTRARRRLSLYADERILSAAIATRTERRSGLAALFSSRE
T1 sequence (P07648 whole entry): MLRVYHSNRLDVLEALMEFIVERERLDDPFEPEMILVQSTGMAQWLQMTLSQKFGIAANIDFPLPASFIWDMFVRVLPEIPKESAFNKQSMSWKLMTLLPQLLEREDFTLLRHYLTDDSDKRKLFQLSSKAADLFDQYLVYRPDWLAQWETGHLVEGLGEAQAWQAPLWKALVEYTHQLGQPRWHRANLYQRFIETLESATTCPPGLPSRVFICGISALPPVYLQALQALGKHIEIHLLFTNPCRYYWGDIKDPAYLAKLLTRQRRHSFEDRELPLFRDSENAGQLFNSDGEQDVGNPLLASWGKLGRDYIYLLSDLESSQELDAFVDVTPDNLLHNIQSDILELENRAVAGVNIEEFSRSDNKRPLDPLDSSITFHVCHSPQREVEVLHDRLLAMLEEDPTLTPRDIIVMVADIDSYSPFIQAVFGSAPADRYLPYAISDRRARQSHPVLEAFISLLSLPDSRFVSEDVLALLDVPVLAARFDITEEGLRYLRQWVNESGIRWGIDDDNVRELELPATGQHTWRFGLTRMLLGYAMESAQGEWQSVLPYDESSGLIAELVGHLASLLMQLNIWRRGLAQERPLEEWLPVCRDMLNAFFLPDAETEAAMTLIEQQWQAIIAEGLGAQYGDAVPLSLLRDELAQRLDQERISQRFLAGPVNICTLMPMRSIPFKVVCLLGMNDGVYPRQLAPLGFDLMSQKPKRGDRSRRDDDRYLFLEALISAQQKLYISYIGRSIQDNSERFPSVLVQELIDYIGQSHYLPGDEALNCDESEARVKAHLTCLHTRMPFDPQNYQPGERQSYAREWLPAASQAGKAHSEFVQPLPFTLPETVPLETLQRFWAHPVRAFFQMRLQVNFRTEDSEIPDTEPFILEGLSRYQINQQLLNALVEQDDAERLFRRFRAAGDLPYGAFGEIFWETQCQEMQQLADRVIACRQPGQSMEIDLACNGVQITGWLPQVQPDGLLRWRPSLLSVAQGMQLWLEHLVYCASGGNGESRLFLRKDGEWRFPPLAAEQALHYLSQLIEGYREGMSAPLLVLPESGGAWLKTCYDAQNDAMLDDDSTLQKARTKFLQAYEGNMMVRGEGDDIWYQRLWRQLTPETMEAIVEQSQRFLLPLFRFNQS
T1 sequence (P08394 whole entry): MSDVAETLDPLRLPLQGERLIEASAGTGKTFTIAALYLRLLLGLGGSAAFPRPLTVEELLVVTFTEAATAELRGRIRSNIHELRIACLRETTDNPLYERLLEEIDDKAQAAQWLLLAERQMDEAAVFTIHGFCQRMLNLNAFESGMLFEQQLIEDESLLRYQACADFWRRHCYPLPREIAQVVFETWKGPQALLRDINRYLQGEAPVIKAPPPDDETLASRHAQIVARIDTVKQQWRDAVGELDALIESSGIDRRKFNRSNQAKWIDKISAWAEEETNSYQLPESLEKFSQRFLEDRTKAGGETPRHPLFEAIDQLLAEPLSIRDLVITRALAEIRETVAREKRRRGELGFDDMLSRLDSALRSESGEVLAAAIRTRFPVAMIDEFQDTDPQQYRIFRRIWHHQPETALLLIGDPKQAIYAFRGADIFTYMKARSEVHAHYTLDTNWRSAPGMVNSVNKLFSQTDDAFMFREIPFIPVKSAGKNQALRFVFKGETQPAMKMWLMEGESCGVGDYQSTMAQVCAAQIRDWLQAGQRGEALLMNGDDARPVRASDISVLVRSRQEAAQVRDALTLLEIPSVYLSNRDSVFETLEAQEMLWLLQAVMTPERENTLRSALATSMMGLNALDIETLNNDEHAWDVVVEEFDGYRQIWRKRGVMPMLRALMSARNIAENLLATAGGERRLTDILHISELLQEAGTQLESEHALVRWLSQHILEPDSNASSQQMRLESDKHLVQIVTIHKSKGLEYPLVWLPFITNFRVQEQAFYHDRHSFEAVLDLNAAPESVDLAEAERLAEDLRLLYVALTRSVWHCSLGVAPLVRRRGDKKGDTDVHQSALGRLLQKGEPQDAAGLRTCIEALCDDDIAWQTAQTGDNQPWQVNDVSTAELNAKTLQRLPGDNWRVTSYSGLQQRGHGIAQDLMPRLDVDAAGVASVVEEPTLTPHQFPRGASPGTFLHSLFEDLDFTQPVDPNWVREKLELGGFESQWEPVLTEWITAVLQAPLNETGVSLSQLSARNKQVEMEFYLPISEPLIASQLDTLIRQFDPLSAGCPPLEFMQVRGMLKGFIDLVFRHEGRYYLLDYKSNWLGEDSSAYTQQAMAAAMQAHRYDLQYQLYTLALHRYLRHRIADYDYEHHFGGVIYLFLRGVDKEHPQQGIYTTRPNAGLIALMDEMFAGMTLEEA

[1] = NIH-3T3 fibroblast cytotoxicity, dose response, cytotoxicity control, cell-based, fluorescence, Alamar Blue, secondary assay (AID 2327); assay type: functional;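 also: NIH-3T3 mouse fibroblasts cultured with fluconazole at 8 µg/mL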
[2] = microbe, parasite or virus in culture; assay type: functional; settings: Mycobacterium tuberculosis

Row | SMILES | IC50 (Exodeoxyribonuclease V) | EC50 [1] | CC50 [2]
1 | Oc1c(C(c2ccccc2Cl)N2CCCC2)ccc2cccnc12 (stereo not given) | 102 µM (inactive) | > 160 µM (inactive) | 30.5 µM (active)
2 | COc1cccc(/C=N/Nc2ccc([N+](=O)[O-])cn2)c1O | > 118 µM (inactive) | 1.61 µM (inconclusive) | –
